Tests used:
[1] = system: 5% DSS murine colitis; test: DSS murine colitis, Experiment 2 (Method 2); assay type: in vivo, BDF1 male mice; conditions: 10 ml/kg oral gavage daily day 0-6, 5-ASA 100 mg/kg
Protocol: A total of 90 BDF1 (H. pylori-free, murine norovirus-free) male mice (Harlan Laboratories, UK) were used in the study. Animals were 8-10 weeks old on supply and used at 10-12 weeks of age. All mice were held in individually ventilated cages (IVCs) in an SPF (Specific Pathogen Free) barrier unit. The animals were identified by numbered cages and by ear punches.
DSS (MP Biomedicals 0216011090, lot# M2709) was prepared as a 5% (w/v) solution in the drinking water and made fresh daily on days 0 to 6 inclusive. DSS was administered from day 0 to day 7.
Test items were stored at −20° C. until the initiation of the study. Each test item was formulated as a homogenous suspension in 0.5% carboxymethyl cellulose (CMC, Sigma C4888) in sterile water (Sigma W3500, lot# RNBC1419), using an Ultraturax homogeniser, on study day −1. Compound 31 was formulated at 2 mg/ml and 47 was formulated at 4 mg/ml. After formulation the test item and the vehicle stocks anonymised with a letter code. All solutions were stored at 4° C. during the study, with 3.8 ml of each suspension being dispensed daily. Test items were administered by oral gavage, daily at 09.00 hrs, at 10 ml/kg, from study day 0 to study day 6.
5-ASA (5-Aminosalicylic acid, Sigma A3537, lot#051M1878V) was aliquoted into preweighed amounts between 71 and 84 mg. Like test item suspensions, these aliquots were anonymised by a letter code. Individual aliquots were formulated as a 10 mg/ml suspension in 0.5% CMC (Sigma C4888) in sterile water (Sigma W3500, lot# RNBC1419) on each day of dosing. 5-ASA was administered by oral gavage, daily at 09.00 hrs, at 10 ml/kg to give a dose of 100 mg/kg, from study day 0 to study day 6. 2.5 Clinical examinations
Any animal was culled if the weight loss was greater than 20%. Animal well-being was monitored daily. Once daily from day 0 until the end of the study, all mice were weighed and assessed for stool consistency, and the presence of overt blood in the stool or around the anus according to the criteria in 2.1
At necropsy, observation of stool in the large bowel was used to supplement in-life observation. […]

[2] = system: IL2 release from Jurkat cells (T cell line Jurkat 6.1); test: Effect of compounds on IL-2 secretion in T lymphocytes (anti-CD3/anti-CD28 stimulated, ELISA); assay type: cell-based; conditions: control inhibitors; plates 2 and 3
Protocol: The T cell line Jurkat 6.1 (ATCC) was used. Cells were pre-treated for 30 min with 1 μM or 10 μM of the respective compound and then stimulated with plate-bound anti-CD3 (BD Pharmingen) and anti-CD28 (AnCell). DMSO was used as vehicle control. […] After 24 hs the supernatant was collected and IL-2 secretion was measured by ELISA.
Compounds were prepared by dissolution in DMSO to yield final concentrations of 1 and 10 μg/ml

SMILES | DAI at day 7 in comparison with vehicle ([1]; 31 at 2 mg/ml, 47 at 4 mg/ml) | loss of body weight at day 7 in comparison with vehicle control ([1]; 47 formulated at 4 mg/ml) | IL-2 pg/ml [2] [pg/mL]
O=C(Nc1ccc(O)c(C(=O)O)c1)c1ccc(C[C@@]2(C3=Cc4ccccc4C3)Cc3ccccc3[C@H]2O)cc1 [Compound 47, 2-hydroxy-5-(4-(((1S,2S)-1-hydroxy-2,3-dihydro-1H,1′H-[2,2′-biinden]-2-yl)methyl)benzamido)benzoic acid] | reduced DAI comparable or equal to 5ASA | does not result in an increase in loss of body weight | –
CN[C@@H]1C[C@H]2O[C@@](C)([C@@H]1OC)n1c3ccccc3c3c4c(c5c6ccccc6n2c5c31)C(=O)NC4 [Stauros] | – | – | 117.75
